In publication PMC10683028 (Journal of Medicinal Chemistry, 2023) one finds Papp and CHI-logDpH7.4 data, which are given here for 26 compounds.

The nature of one series: in vitro. Particulars: PAMPA, pH 7.4. On the technique in general: PAMPA measures passive passage across an artificial lipid membrane.
For series [1] the following is noted: pH 7.4.
Protocol: Test compounds were prepared as 0.5 mM solutions in 50:50 acetonitrile:water and analyzed by reversed-phase HPLC-UV (wavelength 254 nm) using a Phenomenex Luna C18 100 Å 150 × 4.6 mm 5 μm column with a gradient of aqueous phase (50 mM ammonium acetate, pH 7.4) and mobile phase (acetonitrile) as described.[41],[42]

Protocol for in vitro: In vitro ADME experiments were performed exactly as reported.[38]−[40]

By Papp is commonly meant the rate of passage across a membrane or cell layer, normalised by area and donor concentration. In turn, `COc1ccc(-c2noc(C(=O)NCCc3ccc(C(=O)N4CC(OC)C4)cc3)n2)cc1OC1CC1` [compound 79, 3-(3-Cyclopropoxy-4-methoxyphenyl)-N-(4-(3-methoxyazetidine-1-carbonyl)phenethyl)-1,2,4-oxadiazole-5-carboxamide] came in with a Papp in “in vitro” of 4.6 ×10⁻⁶ cm/s. Besides, the CHI-logDpH7.4 in series [1] is 2.6.

With `COc1ccc(-c2noc(C(=O)NCCc3ccc(C(=O)N4CC(OC)C4)cc3)n2)cc1OC1CCC1` [compound 78, 3-[3-(Cyclobutoxy)-4-methoxy-phenyl]-N-[2-[4-(3-methoxyazetidine-1-carbonyl)phenyl]ethyl]-1,2,4-oxadiazole-5-carboxamide], the CHI-logDpH7.4 in series [1] was found to be 2.9.

For `COc1ccc(-c2noc(CNCCc3ccccc3)n2)cc1OC` [compound 53, N-[[3-(3,4-Dimethoxyphenyl)-1,2,4-oxadiazol-5-yl]methyl]-2-phenyl-ethanamine], the CHI-logDpH7.4 in series [1] came out at 2.9.

Compound `COc1ccc(-c2noc(C(=O)NCCN3CCOCC3)n2)cc1OC` [compound 108] displayed a CHI-logDpH7.4 in series [1] of 1.4.

In “in vitro”, `COc1ccc(-c2noc(C(=O)NC(C#N)Cc3ccccc3)n2)cc1OC` (stereo not drawn) [compound 38, N-(1-Cyano-2-phenylethyl)-3-(3,4-dimethoxyphenyl)-1,2,4-oxadiazole-5-carboxamide] gave an apparent permeability coefficient (Papp) of 7.2 ×10⁻⁶ cm/s. The same compound gave a CHI-logDpH7.4 in series [1] of 3.1.

In turn, `COc1ccc(-c2noc(C(=O)NCCc3cccnc3)n2)cc1OC` [compound 5, 3-(3,4-Dimethoxyphenyl)-N-[2-(3-pyridyl)ethyl]-1,2,4-oxadiazole-5-carboxamide] gave a Papp in “in vitro” of 7.7 ×10⁻⁶ cm/s. This compound also came in with a CHI-logDpH7.4 in series [1] of 1.8.

In turn, `COc1ccc(CCNC(=O)c2nc(-c3ccc(OC)c(OC)c3)no2)cc1OC` [compound 50, 3-(3,4-dimethoxyphenyl)-N-[2-(3,4-dimethoxyphenyl)ethyl]-1,2,4-oxadiazole-5-carboxamide] registered a Papp in “in vitro” of 7.4 ×10⁻⁶ cm/s. The CHI-logDpH7.4 in series [1] was determined as 2.5.

Regarding `CNC(=O)c1ccc(CCNC(=O)c2nc(-c3ccc(OC)c(OC)c3)no2)cc1` [compound 12, 3-(3,4-Dimethoxyphenyl)-N-[2-[4-(methylcarbamoyl)phenyl]ethyl]-1,2,4-oxadiazole-5-carboxamide], the apparent permeability (Papp) in the series “in vitro” is 4.8 ×10⁻⁶ cm/s. In addition, in series [1], the CHI-logDpH7.4 is 1.8.

With `COc1cc(-c2noc(C(=O)NCCc3ccc(C(=O)N4CCC4)cc3)n2)ccc1F` [compound 62, N-(4-(Azetidine-1-carbonyl)phenethyl)-3-(4-fluoro-3-methoxyphenyl)-1,2,4-oxadiazole-5-carboxamide], in series [1], the CHI-logDpH7.4 came out at 2.6.

In turn, `COc1ccc(-c2noc(C(=O)NCCc3ccc(C(=O)N4CC(F)(F)C4)cc3)n2)cc1OC` [compound 17, N-(4-(3,3-Difluoroazetidine-1-carbonyl)phenethyl)-3-(3,4-dimethoxyphenyl)-1,2,4-oxadiazole-5-carboxamide] displayed a Papp in the series “in vitro” of 6.3 ×10⁻⁶ cm/s. In series [1], this compound showed a CHI-logDpH7.4 of 2.6.

In turn, `COc1ccc(-c2noc(C(=O)NCCc3ccc(C(=O)N4CCC4)cc3)n2)cc1F` [compound 61, N-(4-(Azetidine-1-carbonyl)phenethyl)-3-(3-fluoro-4-methoxyphenyl)-1,2,4-oxadiazole-5-carboxamide] gave a CHI-logDpH7.4 in series [1] of 2.6.

Compound `COc1ccc(-c2nc(C(=O)NCCc3ccccc3)no2)cc1OC` [compound 90, 5-(3,4-Dimethoxyphenyl)-N-phenethyl-1,2,4-oxadiazole-3-carboxamide] yielded a CHI-logDpH7.4 in series [1] of 2.9.

In series [1], `COc1ccc(CCN(C)C(=O)c2nc(-c3ccc(OC)c(OC)c3)no2)cc1OC` [compound 51, 3-(3,4-Dimethoxyphenyl)-N-[2-(3,4-dimethoxyphenyl)ethyl]-N-methyl-1,2,4-oxadiazole-5-carboxamide] showed a CHI-logDpH7.4 of 2.6.

Compound `COc1cccc(-c2noc(C(=O)NCCc3ccc(C(=O)N4CCC4)cc3)n2)c1` [compound 67, N-(4-(Azetidine-1-carbonyl)phenethyl)-3-(3-methoxyphenyl)-1,2,4-oxadiazole-5-carboxamide] showed a Papp in the series “in vitro” of 10.1 ×10⁻⁶ cm/s. The compound further yielded a CHI-logDpH7.4 in series [1] of 2.4.

In “in vitro”, `O=C(NCCc1ccc(C(=O)N2CCC2)cc1)c1nc(-c2ccc3cn[nH]c3c2)no1` [compound 66, N-(4-(Azetidine-1-carbonyl)phenethyl)-3-(1H-indazol-6-yl)-1,2,4-oxadiazole-5-carboxamide] had an apparent permeability coefficient (Papp) of 5.5 ×10⁻⁶ cm/s. Besides, the CHI-logDpH7.4 in series [1] came out at 1.6.

With `COc1ccc(-c2noc(C(=O)NCCc3ccc(C(=O)O)cc3)n2)cc1OC` [compound 6, 4-[2-[[3-(3,4-Dimethoxyphenyl)-1,2,4-oxadiazole-5-carbonyl]amino]ethyl]benzoic Acid], the Papp in the series “in vitro” is 0.6 ×10⁻⁶ cm/s.

In the case of `COc1ccc(CCNC(=O)c2nc(-c3ccccc3)no2)cc1OC` [compound 107], the CHI-logDpH7.4 in series [1] was 2.8.

`O=C(NCCc1ccc(C(=O)N2CCC2)cc1)c1nc(-c2ccc3nc[nH]c3c2)no1` [compound 63, N-(4-(Azetidine-1-carbonyl)phenethyl)-3-(1H-benzo[d]imidazol-6-yl)-1,2,4-oxadiazole-5-carboxamide]: the Papp in the series “in vitro” is 0.7 ×10⁻⁶ cm/s. This compound also gave a CHI-logDpH7.4 in series [1] of 1.3.

`COc1ccc(-c2noc(C(=O)NC(C#N)Cc3ccc(C(=O)N4CCC4)cc3)n2)cc1OC` (stereo not drawn) [compound 33, N-(2-(4-(Azetidine-1-carbonyl)phenyl)-1-cyanoethyl)-3-(3,4-dimethoxyphenyl)-1,2,4-oxadiazole-5-carboxamide] had an apparent permeability (Papp) in “in vitro” of 2.8 ×10⁻⁶ cm/s. This compound also displayed a CHI-logDpH7.4 in series [1] of 2.1.

In the series “in vitro”, `O=C(NCCc1ccc(C(=O)N2CCC2)cc1)c1nc(-c2ccc3ccoc3c2)no1` [compound 64, N-(4-(Azetidine-1-carbonyl)phenethyl)-3-(benzofuran-6-yl)-1,2,4-oxadiazole-5-carboxamide] came in with an apparent permeability coefficient (Papp) of 7 ×10⁻⁶ cm/s. Besides, the CHI-logDpH7.4 in series [1] is on record as 2.5.

The compound `O=C(NCCc1ccc(C(=O)N2CCC2)cc1)c1nc(-c2ccc3cc[nH]c3c2)no1` [compound 65, N-(4-(Azetidine-1-carbonyl)phenethyl)-3-(1H-indol-6-yl)-1,2,4-oxadiazole-5-carboxamide] came in with an apparent permeability (Papp) in “in vitro” of 4.4 ×10⁻⁶ cm/s. For the same compound, the CHI-logDpH7.4 in series [1] is listed as 2.3.

In turn, `COc1ccc(-c2noc(C(=O)NCCc3ccc(C(=O)N4CC(F)C4)cc3)n2)cc1OC` [compound 16, 3-(3,4-Dimethoxyphenyl)-N-(4-(3-fluoroazetidine-1-carbonyl)phenethyl)-1,2,4-oxadiazole-5-carboxamide] came in with a Papp in “in vitro” of 8.5 ×10⁻⁶ cm/s. This compound also came in with a CHI-logDpH7.4 in series [1] of 2.2.

`COc1ccc(-c2n[nH]c(C(=O)NCCc3ccc(C(=O)N4CCC4)cc3)n2)cc1OC` [compound 101, N-(4-(Azetidine-1-carbonyl)phenethyl)-3-(3,4-dimethoxyphenyl)-1H-1,2,4-triazole-5-carboxamide] came in with a CHI-logDpH7.4 in series [1] of 1.3.

For the compound `COc1cccc(CCNC(=O)c2nc(-c3ccc(OC)c(OC)c3)no2)c1` [compound 19, 3-(3,4-Dimethoxyphenyl)-N-[2-(3-methoxyphenyl)ethyl]-1,2,4-oxadiazole-5-carboxamide], in series [1], the CHI-logDpH7.4 turned out to be 2.9.

In series [1], `COc1ccc(-c2noc(C(=O)NCC(C)(C)c3ccccc3)n2)cc1OC` [compound 7, 3-(3,4-Dimethoxyphenyl)-N-(2-methyl-2-phenyl-propyl)-1,2,4-oxadiazole-5-carboxamide] displayed a CHI-logDpH7.4 of 3.7.

As for `O=C(NCCc1ccccc1)c1nc(-c2ccccc2)no1` [compound 4, 3-Phenyl-N-(2-phenylethyl)-1,2,4-oxadiazole-5-carboxamide], the CHI-logDpH7.4 in series [1] is on record as 3.2.
